Here are results for seven molecules from patent EP0265185A2, “Cephalosporins, processes for their preparation and pharmaceutical compositions containing them” (BEECHAM GROUP PLC, priority 1986, dated 1988).

The test system of one assay is Enterobacter cloacae P99. The experiment in a line: Minimum inhibitory concentration by serial dilution in agar. The format is cell-based. The procedure:
(§1) Minimum inhibitory Concentration (MIC) values of compounds of the invention against Enterobacter cloacae P99 and Pseudomonas aeruginosa 10662 were determined by serial dilution in agar. The plates were inoculated with 104 colony forming units and incubated overnight at 37°C. The MIC values recorded in Tables 1 and 2 were the lowest concentration of antibiotic to inhibit growth.

Assay [1] has as its system Pseudomonas aeruginosa 10662. Described as above. The format is cell-based. The procedure:
as §1

[2] abbreviates: Pseudomonas aeruginosa 10662, serial dilution in agar, inoculated with 104 colony forming units, incubated overnight at 37°C, lowest concentration to inhibit growth, read-out: MIC.

In brackets after ≈: the same amount, converted by molar mass. Where a name gives a salt, the structure may show the parent alone. Read-outs that look alike come from different tables or passages of the source.

In the case of `CCN1CCN(C(=O)N[C@@H](C(=O)N[C@]2(NC=O)C(=O)N3C(C(=O)O)=C(COC(C)=O)CS[C@@H]32)c2ccccc2)C(=O)C1=O` [Compound B, 7β-[D-2-[(4-ethyl-2,3-dioxopiperazin-1-yl)carbonylamino]-2-phenylacetamido]-7α-formamidocephalosporanic acid, sodium salt, reference compound], the MIC (in the assay with Enterobacter cloacae P99; in assay [1] (setting [2])) was 16 µg/mL throughout.

For `CCN1CCN(C(=O)N[C@@H](C(=O)N[C@]2(NC=O)C(=O)N3C(C(=O)[O-])=C(CN=[N+]=[N-])CS[C@@H]32)c2ccccc2)C(=O)C1=O.[Na+]` [Example 3, Sodium (6R,7R)-3-Azidomethyl-7-[(R)-2-(4-ethyl-2,3-dioxopiperazin-1-ylcarbonylamino)-2-phenylacetamido]-7-formamidoceph-3-em-4-carboxylate], the minimal inhibitory concentration (MIC) (commonly the lowest concentration that inhibits growth of the organism) with Enterobacter cloacae P99 was determined as 4 µg/mL; in assay [1] (Pseudomonas aeruginosa, 10662), 4 µg/mL.

Turning to `CCN1CCN(C(=O)N[C@@H](C(=O)N[C@]2(NC=O)C(=O)N3C(C(=O)[O-])=C(COC(=O)c4ccc(O)c(O)c4)CS[C@@H]32)c2ccccc2)C(=O)C1=O.[Na+]` [Example 1, Sodium (6R,7R)-3-(3,4-Dihydroxybenzoyloxy)methyl-7-[(R)-2-(4-ethyl-2,3-dioxopiperazin-1-yl)carbonylamino-2-phenylacetamido]-7-formamidoceph-3-em-4-carboxylate], the minimum inhibitory concentration (MIC) in the assay with Enterobacter cloacae P99 is 0.12 µg/mL; in assay [1] (Pseudomonas aeruginosa, 10662), ≤ 0.03 µg/mL.

For `CO/N=C(\C(=O)N[C@@H]1C(=O)N2C(C(=O)[O-])=C(COC(=O)c3ccc(O)c(O)c3)CS[C@H]12)c1csc(N)n1.[Na+]` [Example 10, Sodium (6R,7R)-7-[2-(2-amino-4-thiazolyl)-2-((Z)-methoxyimino)acetamido]-3-(3,4-dihydroxybenzoyloxy)methylceph-3-em-4-carboxylate], the MIC against Enterobacter cloacae P99 turned out to be 4 µg/mL; in assay [1] (Pseudomonas aeruginosa, 10662), 0.12 µg/mL.

On to `CCN1CCN(C(=O)N[C@@H](C(=O)N[C@]2(NC=O)C(=O)N3C(C(=O)[O-])=C(CNC(=O)c4ccc(O)c(O)c4)CS[C@@H]32)c2ccccc2)C(=O)C1=O.[Na+]` [Example 7, Sodium (6R,7R)-3-(3,4-Dihydroxybenzoyl)aminomethyl7-[(R)-2-(4-ethyl-2,3-dioxopiperazin-1-ylcarbonylamino) -2-phenylacetamido]-7-formamido-ceph-3-em-4-carboxylate], for which the MIC is 0.25 µg/mL with Enterobacter cloacae P99 and ≤ 0.03 µg/mL in assay [1] (Pseudomonas aeruginosa, 10662).

For `CO/N=C(\C(=O)N[C@@H]1C(=O)N2C(C(=O)O)=C(COC(C)=O)CS[C@H]12)c1csc(N)n1` [Compound A, cefotaxime, reference compound], the MIC was ≥ 128 µg/mL in the assay with Enterobacter cloacae P99 and 16 µg/mL (≈ 35.1 µM) in assay [1] (setting [2]).

Regarding `CCN1CCN(C(=O)N[C@@H](C(=O)N[C@]2(NC=O)C(=O)N3C(C(=O)[O-])=C(CNC(=O)/C=C/c4ccc(OC(C)=O)c(OC(C)=O)c4)CS[C@@H]32)c2ccccc2)C(=O)C1=O.[Na+]` [Example 6, Sodium (6R,7R)-3-[(E)-3,4-Diacetoxycinnamoyl]aminomethyl-7-[(R)-2-(4-ethyl-2,3-dioxopiperazin-1-ylcarbonylamino)-2-phenylacetamido]-7-formamido-ceph-3-em-4-carboxylate], the MIC in the assay with Enterobacter cloacae P99 turned out to be 0.5 µg/mL; in assay [1] (Pseudomonas aeruginosa, 10662), 0.12 µg/mL.
